Data: US12144886B2, “Perineural administration of resiniferatoxin for treatment of maladaptive pain” (Sorrento Therapeutics, Inc., priority 2018, dated 2024)

Test system: declawed cat with maladaptive pain
Experiment: Feline Musculoskeletal Pain Index (FMPI) in a declawed cat after perineural RTX nerve blocks
Type: in vivo
Set-up: key to FMPI Q5 (jumping down) / FMPI Q6 (climbing upstairs) / FMPI Q7 (going down stairs) / FMPI Q8 (playing with/chasing toys) / FMPI Q9 (playing and interacting with other pets) / FMPI Q10 (getting up from a resting position) / FMPI Q11 (lying or sitting down) / FMPI Q12 (stretching) / FMPI Q13 (grooming) / FMPI Q14 (interacting with the owner) / FMPI Q15 (being touched or handled) / FMPI Q16 (eating) / FMPI Q17 (using the litter box) / FMPI Q1 (walking) / FMPI Q2 (running) / FMPI Q3 (jumping up) / FMPI Q4 (jumping up to kitchen counter height): 4 = normal; 3 = near normal; 2 = Moderately worse than normal; 1 = Barely, or with great effort; 0 = not at all
Details: one cat, 2.5 μg/forelimb perineural
Method: Each dose of 5 μg/cat or 2.5 μg/forelimb will be formulated in 1 cc insulin syringes by diluting 0.1 mL: (2.5 μg) of RTX in 0.9 mL sterile saline for injection immediately before use. For treatment, a total of 1.0 mL (2.5 μg) will be injected as nerve blocks, distributed equally (0.25 ml per injection site) over 4 injection sites for each forelimb.
Four point nerve blocks are performed by injection of 0.25 mL RTX each into the 1) superficial branches of the radial nerve, 2) dorsal branch of the ulnar nerve, 3) median nerve and superficial branch of the palmar branch of the ulnar nerve, and 4) deep branch of the palmar branch of the ulnar nerve. The nerve blocks for each forelimb are performed following a published technique for locoregional block of the manus in cats (Enomoto et al. (2016) J. Feline Med. Surg. 18:838-845). To block the superficial branches of the radial nerve (RSbr nn), the limb is positioned with the dorsal aspect facing upwards and the carpus in 180° of extension. A 25 G×⅝-inch needle is inserted subcutaneously (SC) from a point at the center of the limb at the level of the antebrachiocarpal joint. The needle is advanced approximately 10 mm SC at a 10-20° angle to the long axis of the limb with the bevel facing up. Once the tip of the needle is 3-5 mm from the confluence point of the accessory cephalic and cephalic veins, the injection is made (0.25 mL). To block the dorsal branch of the ulnar nerve (UDbr n), the limb is positioned with the lateral aspect facing upwards. A point is located lateral to and at the same level as the accessory carpal bone (ACb), positioned between the ACb and the styloid process of the ulna (SpU). A 25 G×⅝-inch needle is inserted SC distal to proximal, so the tip lies at the midpoint of the groove formed between ACb and the SpU, and then the injection is made (0.25 mL). To block the median nerve (M n) and superficial branch of the palmar branch of the ulnar nerve (UPbrS n), the limb is positioned with the palmar aspect facing upwards. A 25 G×⅝-inch needle is inserted SC at the distal border of the carpal pad and approximately 5 mm lateral to it, perpendicular to the long axis of the metacarpus, with the bevel facing up. The needle is inserted SC until the point is located two-thirds of the distance from the lateral aspect of the limb to the medial aspect. Two-thirds of the injectate volume is deposited at this point and the remaining volume is injected while the needle is withdrawn (0.25 mL). Gentle massage is applied to the injected volume under the skin for 5 seconds. To block the deep branch of the palmar branch of the ulnar nerve (UPbrDp n), the limb is positioned with the palmar aspect facing upwards. A 25 G×⅝-inch needle is inserted almost perpendicular to the ACb in a mediolateral direction such that the needle contacts the medial palmar aspect of the midpoint of the ACb with the bevel facing up. The needle is then redirected dorsally and advanced on the medial side of the ACb 2-3 mm until it penetrates the flexor retinaculum, and then the injection is made (0.25 mL).
The effectiveness of the injection with RTX is assessed at days 3, 7, and 14 using owner videography for qualitative assessment (jumping, manipulation of the limb), and cats will also be evaluated using the Feline Musculoskeletal Pain Index (FMPI) and the Client Specific Outcome Measure (CSOM).
For FMPI, cats are scored for 17 attributes designated Q1-Q17 using a scale of 0-4, where 0=not at all, 1=barely or with great effort, 2=moderately worse than normal, 3=near normal, and 4=normal. The total FMPI score is the sum of scores for each question. Higher totals indicate less impairment with a possible range of (0-68). For analysis, total score or percent possible can be used. […]

## C=C(C)[C@]12C[C@@H](C)[C@@]34O[C@](Cc5ccccc5)(O[C@@H]1[C@@H]3C=C(COC(=O)Cc1ccc(O)c(OC)c1)C[C@]1(O)C(=O)C(C)=C[C@@H]41)O2 [RTX, resiniferatoxin]
Day 0 (baseline)
  FMPI % poss: 0.69
  FMPI Q1 (walking): 2
  FMPI Q2 (running): 1
  FMPI Q3 (jumping up): 3
  FMPI Q4 (jumping up to kitchen counter height): 0
  FMPI Q5 (jumping down): 2
  FMPI Q6 (climbing upstairs): 4
  FMPI Q7 (going down stairs): 4
  FMPI Q8 (playing with/chasing toys): 3
  FMPI Q9 (playing and interacting with other pets): 2
  FMPI Q10 (getting up from a resting position): 4
  FMPI Q11 (lying or sitting down): 4
  FMPI Q12 (stretching): 3
  FMPI Q13 (grooming): 3
  FMPI Q14 (interacting with the owner): 3
  FMPI Q15 (being touched or handled): 2
  FMPI Q16 (eating): 4
  FMPI Q17 (using the litter box): 3
  FMPI Total score (possible range 0-68): 47
Day 3
  FMPI % poss: 0.71
  FMPI Q1 (walking): 3
  FMPI Q2 (running): 2
  FMPI Q3 (jumping up): 3
  FMPI Q4 (jumping up to kitchen counter height): 2
  FMPI Q5 (jumping down): 3
  FMPI Q6 (climbing upstairs): *3
  FMPI Q7 (going down stairs): *3
  FMPI Q8 (playing with/chasing toys): 3
  FMPI Q9 (playing and interacting with other pets): *1
  FMPI Q10 (getting up from a resting position): 4
  FMPI Q11 (lying or sitting down): 4
  FMPI Q12 (stretching): *2
  FMPI Q13 (grooming): 3
  FMPI Q14 (interacting with the owner): 3
  FMPI Q15 (being touched or handled): 2
  FMPI Q16 (eating): 4
  FMPI Q17 (using the litter box): 3
  FMPI Total score (possible range 0-68): 48
Day 7
  FMPI % poss: 0.81
  FMPI Q1 (walking): 3
  FMPI Q2 (running): 3
  FMPI Q3 (jumping up): 3
  FMPI Q4 (jumping up to kitchen counter height): 3
  FMPI Q5 (jumping down): 3
  FMPI Q6 (climbing upstairs): 4
  FMPI Q7 (going down stairs): 4
  FMPI Q8 (playing with/chasing toys): 3
  FMPI Q9 (playing and interacting with other pets): 2
  FMPI Q10 (getting up from a resting position): 4
  FMPI Q11 (lying or sitting down): 4
  FMPI Q12 (stretching): 3
  FMPI Q13 (grooming): 3
  FMPI Q14 (interacting with the owner): 3
  FMPI Q15 (being touched or handled): 3
  FMPI Q16 (eating): 4
  FMPI Q17 (using the litter box): 3
  FMPI Total score (possible range 0-68): 55
Day 14
  FMPI % poss: 0.84
  FMPI Q1 (walking): 3
  FMPI Q2 (running): 3
  FMPI Q3 (jumping up): 4
  FMPI Q4 (jumping up to kitchen counter height): 3
  FMPI Q5 (jumping down): 3
  FMPI Q6 (climbing upstairs): 4
  FMPI Q7 (going down stairs): 4
  FMPI Q8 (playing with/chasing toys): 3
  FMPI Q9 (playing and interacting with other pets): 3
  FMPI Q10 (getting up from a resting position): 4
  FMPI Q11 (lying or sitting down): 4
  FMPI Q12 (stretching): 3
  FMPI Q13 (grooming): 3
  FMPI Q14 (interacting with the owner): 3
  FMPI Q15 (being touched or handled): 3
  FMPI Q16 (eating): 4
  FMPI Q17 (using the litter box): 3
  FMPI Total score (possible range 0-68): 57
Screening (baseline)
  FMPI % poss: 0.69
  FMPI Q1 (walking): 2
  FMPI Q2 (running): 1
  FMPI Q3 (jumping up): 3
  FMPI Q4 (jumping up to kitchen counter height): 0
  FMPI Q5 (jumping down): 2
  FMPI Q6 (climbing upstairs): 4
  FMPI Q7 (going down stairs): 4
  FMPI Q8 (playing with/chasing toys): 3
  FMPI Q9 (playing and interacting with other pets): 2
  FMPI Q10 (getting up from a resting position): 4
  FMPI Q11 (lying or sitting down): 4
  FMPI Q12 (stretching): 3
  FMPI Q13 (grooming): 3
  FMPI Q14 (interacting with the owner): 3
  FMPI Q15 (being touched or handled): 2
  FMPI Q16 (eating): 4
  FMPI Q17 (using the litter box): 3
  FMPI Total score (possible range 0-68): 47
